Assay results as given in US11534408B2, “Microcapsules and methods of using the same” (priority 2018, dated 2022).

Test system: Pseudomonas aeruginosa strain PAO1
Assay: Diffusion of antibiotic molecules through the membrane of PAO1 nanoculture capsules
Assay type: cell-based
Protocol: FIGS. 9A-9C provide representative brightfield images of the presently disclosed nanoculture capsules. Pseudomonas aeruginosa PAO1 strain was used as the bacterial inoculum for the inner phase of the capsules. Antibiotics, including tobramycin and tetracycline, were introduced 24 hours after encapsulation. (9A) Untreated PAO1 nanoculture after 24 hours. (9B) PAO1 nanoculture treated with 50 ug/ml tobramycin. (9C) PAO1 nanoculture treated with 50 ug/ml tetracycline.
The presently disclosed polymer was used to investigate the diffusion of antibiotic molecules through the membrane. Pseudomonas aeruginosa strain PAO1 was used as the bacterial inoculum for the inner phase of the nanoculture capsules. Antibiotics, including tobramycin and tetracycline, to which the PAO1 were sensitive, were introduced 24 hours after encapsulation. A 24-hour incubation period allowed for the confluent growth of PAO1. […] Microcapsules used in FIGS. 9A-9C were generated by using (H:V)=(0.6:1) with 3 ppm Pt catalyst and 0% DMAA. The generated microcapsules were heat treated for 5 minutes at 70° C. immediately after encapsulation. Following heat treatment, capsules were incubated at 37° C. for 24 hours.

## NC[C@H]1O[C@H](O[C@H]2[C@H](O)[C@@H](O[C@H]3O[C@H](CO)[C@@H](O)[C@H](N)[C@H]3O)[C@H](N)C[C@@H]2N)[C@H](N)C[C@@H]1O [tobramycin]
50 ug/ml antibiotic introduced 24 hours after encapsulation, capsules (H:V)=(0.6:1), 3 ppm Pt catalyst, 0% DMAA, heat treated 5 minutes at 70° C.
  PAO1 cells in nanoculture capsules after antibiotic treatment: persisted
Not told
  Ability to permeate and diffuse through the membrane: unable to permeate and diffuse through the membrane

## CN(C)[C@@H]1C(O)=C(C(N)=O)C(=O)[C@@]2(O)C(O)=C3C(=O)c4c(O)cccc4[C@@](C)(O)[C@H]3C[C@@H]12 [tetracycline]
Inferred from PAO1 killing at 50 ug/ml, membrane (H:V)=(0.6:1), 3 ppm Pt, 0% DMAA
  Ability to permeate and diffuse through the membrane: able to diffuse through the membrane
